Measurements as given in US20150352131A1, “Compositions and Methods for the Prevention and Treatment of Osteolysis and Osteoporosis” (RHODE ISLAND HOSPITAL, priority 2013, published 2015).
“Also recorded” adds a separate entry of the source. Read-outs that look alike come from different tables or passages of the source.

Tests used:
[1] = test system: osteoclastogenic genes c-Fos, Nfatc1, MMP9, Trap, and Ctsk in bone marrow derived macrophages (BMM); experiment: qRT-PCR of osteoclastogenic gene expression in BMM induced by polyethylene or titanium particles; assay type: cell-based, mice; conditions: BMM with PeP or TiP, NSC87877 50 uM, 5 days of culture, normalized to GAPDH
Description: The average size of PeP and TiP is about […] in diameter (FIGS. 8A-B), within the range of orthopedic implant debris size; these particles can be efficiently engulfed by BMM and trigger their osteoclastogenic differentiation (FIGS. 8C-D). 5×10^5 BMM were cultured in BMM medium containing about 2×10^6 of PeP or TiP in the presence or absence of Shp2 inhibitor NSC87877 (50 uM). BMM cultured in osteoclast media (DMEM supplemented with 10% FCS, 10 ng/mL M-CSF, and 100 ng/mL RANKL) were used as a positive control. Total RNA was extracted from BMM after 5 days of culture using RNeasy mini kit (Qiagen, Valencia, Calif.). cDNA was synthesized using 1 μg total RNA with iSCRIPT™ cDNA Synthesis Kit (Bio-Rad, Hercules, Calif.) and q-PCR was performed with RT2SYBR® Green qPCR kit (Bio-Rad) on a CFX384 real-time PCR machine. Osteoclastogenic gene expressions in BMM were measured and normalized to Glyceraldehyde 3-phosphate dehydrogenase (GAPDH); their levels were then compared between NSC87877 treated and untreated groups.

osteoclasts = experiment: Pit assay, osteoclast-mediated bone resorption on dentin slices; assay type: cell-based, mice
Source text: TRAP staining was used to identify multinucleated osteoclasts in osteoclastogenic cell cultures or tibia section. Briefly, tibia from control and Shp2 mutant mice were fixed in 4% paraformaldehyde overnight and then decalcified in EDTA solution (14%) till bone tissue was soft. The specimens were then dehydrated according standard procedures and embedded for sectioning. TRAP^+ multinucleated osteoclasts (>3 nuclei) were quantified with the use of a Nikon digital microscope. Osteoclast-mediated bone resorptive activity was quantified using the pit assay (Xu D, et al. (2004) Biochemical Journal 383(Pt 2):219-225). Ethanol-sterilized slices of bovine bone were disposed in individual wells of a 48 well/plate with 1 mL osteoclast culture medium containing 2.5×10^4 BM macrophages (BMM) per well. After 8 to 10 days, all cellular components were removed from bone slices with a brief (10 minute) treatment with 5% sodium hypochlorite. […] The effect of Shp2 inhibition on osteoclast-mediated bone resorption was also studied in order to further test whether pharmacological inhibition of Shp2 could serve as a treatment modality. BMM were cultured on dentin slices in osteoclast medium and in the presence or absence of Shp2 inhibitor NSC-87877 (50 μM) (FIGS. 10A-B).

prostate cancer = conditions: delivered as loaded nanoparticles conjugated to T cells; cited from earlier work
[2] = mice given NSC-87877, cited from earlier work
[3] = test system: BM-derived pre-osteoclast cultures (wild type bone marrow cells); experiment: TRAP staining of multinucleated osteoclasts in ex vivo osteoclast culture; assay type: cell-based, mice; conditions: FIG. 5: NSC-87877 50 nM, Aldronates 25 nM, or combination
Description: Whole bone marrow (BM) was flushed from the explanted femurs and tibiae of euthanized mice with DMEM (Invitrogen, N.Y), and centrifuged at 1,500 rpm for 5 minutes. The pelletized cells were resuspended in red blood cell (RBC) lysis buffer, re-centrifuged at 1,500 rpm for 5 minutes, and then cultured in macrophage medium (DMEM supplemented with 10% FBS, 1% penicillin/streptomycin, and 10 ng/mL M-CSF) at 37° C. and 5% CO2 for 3 days (Tanaka S, et al. (1993) J Clin Invest 91(1):257-63) in either 100 mm tissue culture dishes, 4-well or 8-well chamber slides, or 48-well or 96-well tissue culture plates. The medium was changed every other day. To induce osteoclastogenic differentiation, BM cells cultured for 3 days in macrophage medium were further cultured for 5-7 days in osteoclast differentiation medium (DMEM supplemented with 10% FCS, 10 ng/mL M-CSF, and 100 ng/mL RANKL) (McHugh K P, et al. (2000) J Clin Invest 105(4):433-40; Zou W, et al. (2008) Mol Cell 31(3):422-31). These BM-derived osteoclasts were primarily used for the various assays in this study. […] TRAP^+ multinucleated osteoclasts (>3 nuclei) were quantified with the use of a Nikon digital microscope. Osteoclast-mediated bone resorptive activity was quantified using the pit assay (Xu D, et al. (2004) Biochemical Journal 383(Pt 2):219-225). […]

[4] = orthopedic implant; cited from earlier work

O=S(=O)(O)c1ccc2cc(/N=N/c3cc(S(=O)(=O)O)c4cccnc4c3O)ccc2c1 [NSC87877]
expression of osteoclastogenic marker genes [1]: significantly inhibited | osteoclast-mediated bone resorption (pits formed on dentin slices) (osteoclasts; BMM from wild type mice in osteoclast medium, NSC-87877 50 μM, 10 days): formed only a few small pits; also recorded: markedly reduced | ability to resorb bone matrix (pits on dentin slices) (osteoclasts; co-cultured 10 days on dentin slices, FIG. 5: NSC-87877 50 nM, Aldronates 25 nM, or combination): inhibited | tumor burden (prostate cancer): effective in reducing tumor burden | toxicity in vivo (death versus control-treated or untreated mice) [2]: did not die significantly sooner | toxicity in vivo (death versus control-treated or untreated mice) ([2]; listed as NSC 87877): lack of toxicity | number of osteoclasts (formation of TRAP+ multinucleated osteoclasts) [3]: inhibited

NCCCC(O)(P(=O)(O)O)P(=O)(O)O [Alendronate]
bone ongrowth and shear strength [4]: increase
